# Tested on: Gram-negative rods (except P. aeruginosa)
# Test: direct antimicrobial activity, MIC
# Format: cell-based
# Procedure: Direct antimicrobial activity against Gram-negative and Gram-positive bacterial strains, as well as against yeast, was examined as previously described by the disc-diffusion test, the MIC determination assay, the MBC (for bacteria), and the MFC (for yeasts) determination tests. All the above-mentioned tests were performed according to EUCAST [71, 72] and CLSI [73, 74, 75, 76, 77] recommendations. The following reference agents were used: nitrofurantoin (for Gram-negative rods), linezolid (for Gram-positive bacteria), and fluconazole (in the case of fungi). The new aromatic diboronic acids were dissolved in DMSO (Sigma, St. Louis, MO, USA). In the disc-diffusion test, the concentration of new agents was 0.4 mg per disc.
row,SMILES,MIC
1,OB(O)c1cc(Br)c(B(O)O)cc1Br [1i],50 to 400 µg/mL
2,"OB(O)c1ccccc1B(O)O [3a, phenylene-1,2-diboronic acid]",50 to 400 µg/mL
3,"OB(O)c1cc(F)ccc1F [7a, 2,5-difluorophenylboronic acid]",50 to 400 µg/mL
4,O=Cc1cc(F)ccc1B(O)O [7b],50 to 400 µg/mL

# From PMC10648349, “Aromatic Diboronic Acids as Effective KPC/AmpC Inhibitors” (Molecules, 2023)
